Results published in article PMC8330636, “Design and enantioselective synthesis of 3-(α-acrylic acid) benzoxaboroles to combat carbapenemase resistance” (Chemical Communications (Cambridge, England), 2021).
Like-named read-outs stand apart in the source and are kept apart here.

Experiments:
KPC-2 [1] = biological target: T1, KPC-2 (Klebsiella pneumoniae, UniProt Q9F663); test: inhibition of purified recombinant enzyme; type: biochemical; conditions: read-out: Class A KPC-2
T1 construct: purified recombinant; class A serine beta-lactamase; construct details only in ESI
T1 sequence (Q9F663 25-293 limits assumed): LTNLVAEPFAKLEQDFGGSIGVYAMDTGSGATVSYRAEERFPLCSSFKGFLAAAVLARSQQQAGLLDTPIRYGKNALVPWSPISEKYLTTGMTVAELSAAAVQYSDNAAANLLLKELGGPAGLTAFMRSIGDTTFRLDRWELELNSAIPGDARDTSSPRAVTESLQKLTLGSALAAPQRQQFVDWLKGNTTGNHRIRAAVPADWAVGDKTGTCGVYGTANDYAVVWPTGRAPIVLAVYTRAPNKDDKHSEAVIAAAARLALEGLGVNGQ

OXA-48 [2] = biological target: T2, OXA-48 (Klebsiella pneumoniae, UniProt Q6XEC0); test: inhibition of purified recombinant enzyme; type: biochemical; conditions: read-out: Class D OXA-48
T2 construct: purified recombinant; class D serine beta-lactamase; construct details only in ESI
T2 sequence (Q6XEC0 23-265 limits assumed): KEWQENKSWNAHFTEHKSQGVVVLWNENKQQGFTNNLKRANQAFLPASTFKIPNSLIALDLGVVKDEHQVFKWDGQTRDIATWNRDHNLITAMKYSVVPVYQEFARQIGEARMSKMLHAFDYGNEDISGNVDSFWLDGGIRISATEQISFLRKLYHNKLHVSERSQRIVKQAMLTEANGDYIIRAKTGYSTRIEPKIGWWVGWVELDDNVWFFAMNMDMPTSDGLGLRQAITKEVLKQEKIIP

OXA-48 [3] = biological target: T2, OXA-48; test: biochemical; design: inhibition of purified recombinant beta-lactamases, IC50; conditions: read-out: Class D OXA-48
KPC-2 [4] = biological target: T1, KPC-2; test: biochemical; design: inhibition of purified recombinant beta-lactamases, IC50; conditions: read-out: Class A KPC-2
Class B1 NDM-1 [5] = biological target: T3, Class B1 NDM-1 (Klebsiella pneumoniae, UniProt C7C422); test: biochemical; design: inhibition of purified recombinant beta-lactamases, IC50
T3 construct: gene blaNDM-1
T3 sequence (C7C422 whole entry, looked up): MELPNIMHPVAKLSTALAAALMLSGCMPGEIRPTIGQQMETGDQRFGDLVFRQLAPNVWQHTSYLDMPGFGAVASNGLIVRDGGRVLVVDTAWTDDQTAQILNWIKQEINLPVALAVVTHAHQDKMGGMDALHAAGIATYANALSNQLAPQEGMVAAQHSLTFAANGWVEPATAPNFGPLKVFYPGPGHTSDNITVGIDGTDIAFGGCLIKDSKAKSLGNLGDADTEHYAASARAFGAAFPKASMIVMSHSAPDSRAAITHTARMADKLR

Class B1 NDM-1 [6] = biological target: T3, Class B1 NDM-1; test: biochemical; design: inhibition of purified recombinant beta-lactamases, IC50 from dose-response curves; read-out not stated in excerpts
Description: This selectivity was mostly, but not exclusively observed for the other β-lactamases, substantial inhibition of which was more sporadic than for KPC-2 (Table 2). The KPC-2 stereoselectivity for the benzoxaborole derivatives is interesting since the penicillin substrates of some of the β-lactamases have a (2S) C-3 carbon adjacent to their C-2 carboxylate. The difference in results for the (R)- and (S)-benzoxaboroles may reflect different distances between their carboxylate and electrophilic boron; the analogous carboxylate to β-lactam distance is proposed to be important with respect to antibacterial activity.[11]

| SMILES | IC50 (KPC-2 [1]) | IC50 (OXA-48 [2]) | IC50 (OXA-48 [3]) | IC50 (KPC-2 [4]) | IC50 (Class B1 NDM-1 [5]) | IC50 (Class B1 NDM-1 [6]) |
| --- | --- | --- | --- | --- | --- | --- |
| C=C(C(=O)O)[C@@H]1OB(O)c2ccccc21 [(R)-4a] | 3.08 µM | 15.8 µM |  |  |  |  |
| C=C(C(=O)O)[C@@H]1OB(O)c2ccc(OC)cc21 [(R)-4c] | 7.62 µM | 42.5 µM |  |  |  |  |
| C=C(C(=O)O)[C@@H]1OB(O)c2ccc(F)cc21 [(R)-4f] | 3.87 µM | 10.1 µM |  |  |  |  |
| C=C(C(=O)O)[C@@H]1OB(O)c2cc(F)ccc21 [(R)-4j] | 0.97 µM | 5.97 µM |  |  |  |  |
| C=C(C(=O)O)[C@@H]1OB(O)c2ccc(Oc3ccc(C)cc3)cc21 [(R)-4m] |  |  | 6.24 µM | 3.58 µM | 352 µM |  |
| C=C(C(=O)O)[C@@H]1OB(O)c2ccc(Oc3cccc(C)c3)cc21 [(R)-4n] |  |  | 4.1 µM | 2.11 µM | 110 µM |  |
| C=C(C(=O)O)[C@@H]1OB(O)c2ccc(Oc3ccc(C(F)(F)F)cc3)cc21 [(R)-4o] |  |  | 7.73 µM | 3.76 µM | > 600 µM |  |
| C=C(C(=O)O)[C@@H]1OB(O)c2ccc(OCc3ccccc3)cc21 [(R)-4p] |  |  | 7.55 µM | 1.17 µM | > 300 µM |  |
| C=C(C(=O)O)[C@@H]1OB(O)c2cc(Oc3ccc(OC)cc3)ccc21 [(R)-4q] | 0.07 µM | 0.43 µM |  |  |  |  |
| C=C(C(=O)O)[C@@H]1OB(O)c2cc(Oc3ccc([N+](=O)[O-])cc3)ccc21 [(R)-4r] |  |  | 2.64 µM | 0.12 µM | 308 µM |  |
| C=C(C(=O)O)[C@@H]1OB(O)c2cc(Oc3ccc(Cl)cc3)ccc21 [(R)-4s] |  |  | 0.85 µM | 0.27 µM | 146 µM |  |
| C=C(C(=O)O)[C@@H]1OB(O)c2cc(OCc3ccccc3)ccc21 [(R)-4t] |  |  | 1.33 µM | 0.55 µM | 382 µM |  |
| C=C(C(=O)O)[C@H]1OB(O)c2ccccc21 [(S)-4a] | 0.48 µM | 14.1 µM |  |  |  | > 600 µM |
| C=C(C(=O)O)[C@H]1OB(O)c2ccc(OC)cc21 [(S)-4c] | 0.54 µM | 34.1 µM |  |  |  |  |
| C=C(C(=O)O)[C@H]1OB(O)c2ccc(F)cc21 [(S)-4f] | 0.34 µM | 14.7 µM |  |  |  |  |
| C=C(C(=O)O)[C@H]1OB(O)c2cc(F)ccc21 [(S)-4j] | 0.49 µM | 12 µM |  |  |  |  |
| C=C(C(=O)O)[C@H]1OB(O)c2cc(Oc3ccc(OC)cc3)ccc21 [(S)-4q] | 0.01 µM | 0.74 µM |  |  |  |  |
| NC(=O)[C@@H]1CC[C@@H]2CN1C(=O)N2OS(=O)(=O)O [Avibactam] |  |  |  |  |  | > 600 µM |
